In this test the test system is primary astrocytes. Nature of the test: Extracellular lactate quantification. The conditions noted are these: Appendix II; for Score Lact.: CDC54K library; for EC50: lactate secretion, read-out: EC50. Format: cell-based, mouse. On the procedure: Secretion of L-lactate was determined in the extracellular medium of 96-well plated astrocytes after 90 min stimulation (at 37° C., in 5% CO2/95% air conditions) with the drug of interest. The stimulation medium was composed of D5030 medium (completed with D-glucose 5 mM and 44 mM sodium bicarbonate) for 90 min in concentrations ranging from 0 to 100 μM.
Briefly, 200 μl of a Glycine (Sigma)-Semicarbazide (Acros) 0.2M pH 10 buffer containing 3 mM NAD (Roche) and LDH 14 U/ml (Roche) was added to each well of a 96-well plate containing 30 μl aliquots complemented with 20 μl fresh complete D5030 medium. Samples were incubated at 37° C. for 1 h. After samples cooled down at room temperature, the fluorescence intensity (340 nm excitation/450 nm emission) that represents the amount of NADH produced was measured, and lactate concentration values were determined from a standard curve of L-lactate.
Statistical analysis consisted in ANOVA followed by Fisher LSD post-hoc test for pair-wise comparisons.
Levels of lactate secreted by astrocytes were measured in the extracellular medium at 90 min after stimulation with hits (molecules) from the CDC54K library.

Like-named read-outs stand apart in the source and are kept apart here.

As for `CCc1cc2c(NC3CCCC3)ncnc2s1` [887-0183], the “Score Lact.” value came to 0.66.

For `Cc1noc2ncnc(NC(C)CCc3ccccc3)c12` (stereo not shown) [E944-0182], the “Score Lact.” value is on record as 0.55.

As a reminder, the EC50 is the concentration giving half of the maximal effect. As to `COc1ccc(S(=O)(=O)Nc2ccc(N3CCCCS3(=O)=O)cc2)cc1F` [F2794-0128], the “Score Lact.” value is given as 0.62 and the EC50 stood at 9.85 µM. The corresponding values for `Cc1cccc(NS(=O)(=O)c2ccc(F)c(Cl)c2)c1` [F3394-1364] are 0.33 and 5.87 µM. For `CC(C)(C)c1cccc(CNc2ncnc3[nH]ncc23)c1` [F5285-0069], the “Score Lact.” value is recorded as 0.36. Also, the concentration for a half-maximal effect (EC50) (Mus musculus, Astrocyte) worked out at 6.29 µM. Regarding `CCc1cccc(NS(=O)(=O)c2ccc3c(c2)CCCN3C(C)=O)c1` [G855-0143], the “Score Lact.” value is listed as 0.56. On to `CC(=O)N1CCCc2cc(S(=O)(=O)Nc3ccc(OC(F)(F)F)cc3)ccc21` [G855-0183], for which the “Score Lact.” value is given as 0.54. The same measure, in the same setting: with `CCNc1cc(C)nc(Nc2ccc(NC(=O)Cc3ccccc3)cc2)n1` [G869-0064] the figure was 0.54.

`CCNc1cc(C)nc(Nc2ccc(NC(=O)C3=CC=CC3)cc2)n1` [G869-0071]: the “Score Lact.” value is 0.63. Also, under “Mus musculus, Astrocyte”, the EC50 is 4.9 µM. Consider `COc1ccc(CCNc2ncnc3c2cnn3C)cc1` [K405-2595], for which the “Score Lact.” value was 0.70. Consider `CCOc1ccc(C2=CCc3c2ncn(Cc2ccncc2)c3=O)cc1OCC` [L115-0403], for which the “Score Lact.” value amounted to 0.81. The EC50 (Mus musculus, Astrocyte) amounted to 3.28 µM. As for `CC(=O)N1CC(C)(C)c2cc(S(=O)(=O)NCc3ccc(C)cc3)ccc21` [L302-0069], the “Score Lact.” value is 0.55. Regarding `CC(=O)N1CC(C)(C)c2cc(S(=O)(=O)Nc3ccc(I)cc3C)ccc21` [L302-0181], the “Score Lact.” value amounted to 0.52. Where the note is “Mus musculus, Astrocyte”, the EC50 worked out at 5.05 µM. For `Cc1cccc(NC(=O)NC2CCN(c3nc4ccccc4n(C)c3=O)CC2)c1` [L932-0267], in that order: 0.53 and 4.64 µM. `CN(C)c1ccc2ncnc(N3CCN(C(=O)c4ccc(Cl)cc4)CC3)c2c1` [M381-0730]: the “Score Lact.” value is recorded as 0.57. Take `CCc1ccc(NC(=O)Cc2cn(C)c3ncccc23)cc1` [M508-0370]: the “Score Lact.” value was 0.60. The same measure, in the same setting: with `CCCCN1C(=O)C(C)(C(=O)Nc2ccc(OCC)cc2)Oc2cccnc21` (stereo not shown) [P621-1364] the figure was 0.43. In the case of `Br.CCOc1ccc(C2(O)C(C)C3=C(CCN3)N2c2ccc(OC)cc2)cc1` (stereo not shown) [T0500-6629], the “Score Lact.” value is 0.61. In addition, the EC50 (Mus musculus, Astrocyte) was 2.61 µM. For the molecule `Cc1nc2ccccc2n1CCOc1ccc(Br)cc1` [T0505-4087], the “Score Lact.” value is on record as 0.64. As for `C1=C(c2ccccc2)c2c(ncnc2NCCN2CCOCC2)C1.O=C(O)C(=O)O.O=C(O)C(=O)O` [T0513-0213], the “Score Lact.” value is 0.30. Besides, where the note is “Mus musculus, Astrocyte”, the EC50 was determined as 3.99 µM. Regarding `CC1(C)Cc2cccc(OCC(O)CN3CCc4ccccc4C3)c2O1` (stereo not shown) [T0515-1783], the “Score Lact.” value is listed as 0.59. Turning to `N#Cc1cc(C(=O)c2cc(I)ccc2O)cn(-c2ccc(I)c(Cl)c2)c1=O` [T0516-6894], the “Score Lact.” value stood at 0.38. For the same molecule, the EC50 (Mus musculus, Astrocyte) was determined as 8.21 µM. For `Cc1[nH]c2nc(CNc3nc4ccccc4c(=O)n3C)[nH]c(=O)c2c1C` [T0517-2783], in that order: 0.46 and 3.84 µM. For `COc1ccc(NS(=O)(=O)c2cccc(NC(=O)c3ccc[nH]3)c2)cc1` [T0517-4117], in that order: 0.91 and 5.43 µM.

On to `CCN(CC)C(=O)c1nc(CNC(=O)c2ccc3ccccc3n2)oc1C` [T993-1787], for which the “Score Lact.” value stood at 0.36. Turning to `O=c1[nH]nc(SCCOc2ccc(Br)cc2)n1C1CC1` [T533260], the “Score Lact.” value is given as 0.53. For the same molecule, where the note is “Mus musculus, Astrocyte”, the EC50 was 6.84 µM. Turning to `O=S(=O)(Nc1ccc(S(=O)(=O)C(F)F)cc1)c1ccc(Cl)cc1` [T5311200], the “Score Lact.” value is recorded as 0.56. With `CCOc1ccc(CN(C)CC(=O)Nc2cccc(C)c2)cc1OC` [T5318833], the “Score Lact.” value was 0.42. On the same count and under the same terms, under `COc1ccc(NS(=O)(=O)c2ccc(NC(=O)C3CCCO3)cc2)cc1` (stereo not shown) [T5329723] stands 0.53; under `CN1c2ccccc2C(=O)NC1c1ccc(Cl)c(Cl)c1` (stereo not shown) [T5389517], 0.33; under `CN(C)S(=O)(=O)c1cccc(C(=O)Nc2ccc(Oc3ccccc3)cc2)c1` [T5393500], 0.59. Still for that read-out and setting: with `Cc1ccc(OCCn2c(C)nc3ccccc32)cc1` [T5444083] the figure was 0.51. The same measure, in the same setting: under `CCN1C(=O)c2cccc3c(S(=O)(=O)Nc4ccc(OC)cc4OC)ccc1c23` [T5477696] stands 0.44.

For `Cc1c(O)ccc2c(CN(C)CC3COc4ccccc4O3)cc(=O)oc12` (stereo not shown) [T5494352], the “Score Lact.” value is reported as 0.44. On to `CCn1c(=O)c(C)nc2cc(C(=O)N(Cc3ccc(C)cc3)C3CC3)ccc21` [T5586091], for which the “Score Lact.” value is listed as 0.45. Further, the EC50 (Mus musculus, Astrocyte) is 5.36 µM. The corresponding values for `CCCC(=O)NC1=NC(c2ccc3c(c2)CCO3)=CC1` [T5691896] are 0.38 and 5.21 µM. The corresponding values for `Cc1ccc(-c2c[nH]c(NC(=O)c3ccncc3)n2)cc1[N+](=O)[O-]` [T5694329] are 0.47 and 1.59 µM.

Take `CC(=O)c1c(C)[nH]c(C(=O)N(C)Cc2ccc(C)cc2C)c1C` [T5705522]: the “Score Lact.” value is listed as 0.85. With `CC(=O)N1CCc2cc(S(=O)(=O)NCC(C)c3ccccc3)ccc21` (stereo not shown) [T5707230], the “Score Lact.” value is 0.67 and the EC50 was determined as 4.88 µM.

On to `COc1ccc(C(C)NC(=O)c2cc(=O)c3ccccc3o2)cc1I` (stereo not shown) [T5710343], for which the “Score Lact.” value is 0.67. Also, the EC50 (Mus musculus, Astrocyte) stood at 6.31 µM. The corresponding values for `CCc1ccccc1NC(=O)CN(C)c1nccc2c1oc1ccccc12` [T5712071] are 0.8 and 1.14 µM.

For the molecule `CC1=C(C)c2c(N)nc(CCc3nc4ccccc4[nH]3)nc2C1` [T5719257], the “Score Lact.” value is recorded as 0.74. The half-maximal effective concentration (EC50) (Mus musculus, Astrocyte) stood at 2.85 µM. As to `Cc1ccc(S(=O)(=O)Nc2ccc(F)c(F)c2F)cc1[N+](=O)[O-]` [T5729557], the “Score Lact.” value is 0.88. On to `CCc1ccc(S(=O)(=O)Nc2c(C)nn(C)c2C)cc1` [T5753165], for which the “Score Lact.” value was 0.54. On to `COc1ccccc1NC(=O)CO/N=C(/N)c1cccc(C(C)(F)F)c1` [T5770640], for which the “Score Lact.” value is recorded as 0.55. The concentration for a half-maximal effect (EC50) (Mus musculus, Astrocyte) was determined as 4.86 µM. The corresponding values for `COc1cc(C)c(NC(=O)Cc2ccc(C)c(C)c2)cc1OC` [T5783794] are 0.44 and 6.11 µM. For `C1=Cc2ncnc(NCc3ccc4c(c3)OCO4)c2C1` [T5787526], in that order: 0.71 and 3.89 µM.

In the case of `CC(=O)Nc1cccc(NC(=O)CCc2nc(C)c(C)n2C2CCCC2)c1` [T5788339], the “Score Lact.” value stood at 0.75. The EC50 (Mus musculus, Astrocyte) is 3.9 µM. With `CCCCn1c(CN(C)Cc2ccccc2)nc2c1c(=O)n(C)c(=O)n2C` [T5788545], the “Score Lact.” value was 0.45.

On to `C1=Cc2ncnc(NCc3ccccc3CN3CCOCC3)c2C1` [T5790476], for which the “Score Lact.” value turned out to be 0.79. The EC50 (Mus musculus, Astrocyte) came to 3.98 µM.

On to `CC(=O)c1c(C)[nH]c(C(=O)C(C)N(C)Cc2ccc3c(c2)OCO3)c1C` (stereo not shown) [T5798761], for which the “Score Lact.” value was 0.73. Take `COc1cccc(C(CNc2nc(C(C)(C)C)nc3ccccc23)N(C)C)c1` (stereo not shown) [T5800607]: the “Score Lact.” value worked out at 063. The EC50 (Mus musculus, Astrocyte) stood at 5.87 µM.

`Cn1nc(C(=O)Nc2ccc(Oc3ccccc3Cl)cc2)ccc1=O` [T5813085]: the “Score Lact.” value turned out to be 1.01.

On to `O=C(O)C(=O)O.c1ccc(Cc2ccc(OCCn3ccnc3)cc2)cc1` [T5821723], for which the “Score Lact.” value is 0.73. `COc1ccc(-c2csc(N3C(=O)CC4CS(=O)(=O)CC43)n2)cc1` (stereo not shown) [T5832764]: the “Score Lact.” value was found to be 0.60 and the EC50 is 4.02 µM.

Turning to `Cc1cc(C)cc(NC(=O)CN2CCCC2c2ccc3c(c2)OCCCO3)c1` (stereo not shown) [T5993799], the “Score Lact.” value was found to be 1.14. The EC50 (Mus musculus, Astrocyte) was determined as 8.81 µM. In the case of `Cc1cccc(NC(=O)c2ccc(S(=O)(=O)Nc3ccccc3)cc2)n1` [T6125251], the “Score Lact.” value was found to be 0.51.

Regarding `O=S(=O)(Nc1ccc(Cl)cc1)c1ccc(F)c(Cl)c1` [T6947848], the “Score Lact.” value is listed as 0.98.

For the molecule `COc1ccc(CC(=O)Nc2ccc(C)c(C)c2)cc1OC` [Y030-2832], the “Score Lact.” value came to 0.34. The same measure, in the same setting: under `O=C(Nc1ccc(S(=O)(=O)NCC2CCCO2)cc1)c1ccccc1` (stereo not shown) [Y031-0361] stands 0.43; under `C1CCCC(NC2=NCCCNC23CCCCC3)CC1` [Z076-0028], 0.56. Turning to `Cc1nnsc1C(=O)N1CCN(C(C)C)CC1` [Z606-5341], the “Score Lact.” value amounted to 0.36. Same read-out and setting: under `Cc1nc2ncnn2c(NC2CCCCCC2)c1C` [Z606-8287] stands 0.57; under `Cc1nc2ncnn2c(NCc2ccco2)c1C` [Z606-8298], 0.38; under `CCc1c(C)nc2ncnn2c1NC1CCCCCC1` [Z606-8351], 0.42.

In the case of `CCc1c(C)nc2ncnn2c1NC1CCCCC1` [Z606-8352], the “Score Lact.” value was determined as 0.83.

The values are drawn from patent US12310967B2, “Compositions and methods of treatment for neurological disorders comprising motor neuron diseases” (Gliapharm SA, priority 2017, dated 2025).
